This note sets out measurements from patent publication US20230310428A1, “EGFR INHIBITOR AND PREPARATION METHOD AND USE THEREOF” (HONGYUN BIOTECH CO., LTD., priority 2020, published 2023).

Holding throughout (assay): Growth inhibitory activity of compounds on BaF3 cell lines stably transfected with kinase (MTS, 48 h)
What all share (format): cell-based

Assay [1] concerns the target T1, various mutants of kinase EGFR (BaF3 cell lines stably transfected with kinase) (Homo sapiens, UniProt P00533).
T1 construct: other: BaF3 cells stably transfected with EGFR Δ19Del; MTS, 48 h; other: BaF3 cell line stably transfected with EGFR Δ19Del
Conditions: BaF3 cell line stably transfected with EGFR Δ19Del, read-out: Δ19Del growth inhibitory activity IC50. Put shortly: (§1)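 OD at 490 nm after 1-4 h MTS/PES incubation gave growth inhibition relative to 0.1% DMSO negative and cell-free medium blank. Compounds: 8-point 1/3 dilution from 10 µM, 48 h, 37 °C. IC50 from inhibition curves; duplicates.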

Assay [2] addresses T2, various mutants of kinase EGFR (BaF3 cell lines stably transfected with kinase) (Homo sapiens, UniProt P00533, C797S/L858R/T790M).
T2 construct: expressed in transfected cells; host or cells: BaF3
Conditions: BaF3 cell line stably transfected with EGFR L858R/T790M/C797S, read-out: L858R/T790M/ C797S growth inhibitory activity IC50. Put shortly: as §1

Assay [3] has as its target T3, various mutants of kinase EGFR (BaF3 cell lines stably transfected with kinase) (Homo sapiens, UniProt P00533, L858R).
T3 construct: expressed in transfected cells; host or cells: BaF3
The settings on record: BaF3 cell line stably transfected with EGFR L858R, read-out: L858R growth inhibitory activity IC50. A digest of the protocol:
as §1

The target of assay [4] is T4, various mutants of kinase EGFR (BaF3 cell lines stably transfected with kinase) (Homo sapiens, UniProt P00533, L858R/T790M).
T4 construct: expressed in transfected cells; host or cells: BaF3
Conditions: BaF3 cell line stably transfected with EGFR L858R/T790M, read-out: L858R/ T790M growth inhibitory activity IC50. A digest of the protocol:
as §1

The target in assay [5] is T5, various mutants of kinase EGFR (BaF3 cell lines stably transfected with kinase) (Homo sapiens, UniProt P00533, T790M/C797S, form not given).
T5 construct: other: BaF3 cells stably transfected with EGFR Δ19Del/T790M/C797S; MTS, 48; other: BaF3 cell line stably transfected with EGFR Δ19Del/T790M/C7
Conditions: BaF3 cell line stably transfected with EGFR Δ19Del/T790M/C797S, read-out: Δ19Del/T790M/ C797S growth inhibitory activity IC50. Put shortly:
as §1

Assay [6] deals with T6, various mutants of kinase EGFR (BaF3 cell lines stably transfected with kinase) (Homo sapiens, UniProt P00533, T790M, form not given).
T6 construct: other: BaF3 cells stably transfected with EGFR Δ19Del/T790M; MTS, 48 h; other: BaF3 cell line stably transfected with EGFR Δ19Del/T790M; MTS, 48
Conditions: BaF3 cell line stably transfected with EGFR Δ19Del/T790M, read-out: Δ19Del/ T790M growth inhibitory activity IC50. A digest of the protocol: as §1

pIC50: −log10 of the molar value.

T4 sequence (P00533 25-1210 T790M/L858R): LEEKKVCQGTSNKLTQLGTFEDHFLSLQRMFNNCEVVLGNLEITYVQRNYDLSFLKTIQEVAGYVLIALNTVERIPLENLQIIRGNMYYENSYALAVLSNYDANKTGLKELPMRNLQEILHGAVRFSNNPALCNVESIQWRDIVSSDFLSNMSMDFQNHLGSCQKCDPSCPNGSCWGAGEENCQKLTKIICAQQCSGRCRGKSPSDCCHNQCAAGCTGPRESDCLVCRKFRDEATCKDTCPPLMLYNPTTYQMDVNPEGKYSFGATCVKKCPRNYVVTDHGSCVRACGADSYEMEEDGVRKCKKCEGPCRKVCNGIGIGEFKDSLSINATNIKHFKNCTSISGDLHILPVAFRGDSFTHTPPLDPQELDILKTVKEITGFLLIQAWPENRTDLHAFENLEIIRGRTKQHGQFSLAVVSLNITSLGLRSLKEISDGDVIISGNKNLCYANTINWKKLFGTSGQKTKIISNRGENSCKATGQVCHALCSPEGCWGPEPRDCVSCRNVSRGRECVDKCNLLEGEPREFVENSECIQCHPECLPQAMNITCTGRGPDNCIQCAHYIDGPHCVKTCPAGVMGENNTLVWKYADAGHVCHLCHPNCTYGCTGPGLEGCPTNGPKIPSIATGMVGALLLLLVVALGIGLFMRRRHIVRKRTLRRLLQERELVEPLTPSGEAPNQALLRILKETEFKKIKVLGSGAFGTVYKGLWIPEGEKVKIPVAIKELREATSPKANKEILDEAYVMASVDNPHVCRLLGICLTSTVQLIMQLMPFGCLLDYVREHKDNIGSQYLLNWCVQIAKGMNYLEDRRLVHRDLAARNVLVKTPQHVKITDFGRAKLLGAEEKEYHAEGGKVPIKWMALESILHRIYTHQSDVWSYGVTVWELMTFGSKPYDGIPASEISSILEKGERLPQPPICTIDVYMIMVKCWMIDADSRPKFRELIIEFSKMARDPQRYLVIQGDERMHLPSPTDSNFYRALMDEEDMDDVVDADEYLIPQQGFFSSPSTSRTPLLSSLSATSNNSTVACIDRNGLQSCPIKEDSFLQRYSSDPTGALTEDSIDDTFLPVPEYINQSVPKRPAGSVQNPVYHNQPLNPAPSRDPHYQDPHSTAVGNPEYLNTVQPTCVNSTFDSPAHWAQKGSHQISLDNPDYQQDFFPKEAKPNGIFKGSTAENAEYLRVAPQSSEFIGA
T6 sequence (P00533 with tags, fused parts or gaps DEL746-750/T790M, form open): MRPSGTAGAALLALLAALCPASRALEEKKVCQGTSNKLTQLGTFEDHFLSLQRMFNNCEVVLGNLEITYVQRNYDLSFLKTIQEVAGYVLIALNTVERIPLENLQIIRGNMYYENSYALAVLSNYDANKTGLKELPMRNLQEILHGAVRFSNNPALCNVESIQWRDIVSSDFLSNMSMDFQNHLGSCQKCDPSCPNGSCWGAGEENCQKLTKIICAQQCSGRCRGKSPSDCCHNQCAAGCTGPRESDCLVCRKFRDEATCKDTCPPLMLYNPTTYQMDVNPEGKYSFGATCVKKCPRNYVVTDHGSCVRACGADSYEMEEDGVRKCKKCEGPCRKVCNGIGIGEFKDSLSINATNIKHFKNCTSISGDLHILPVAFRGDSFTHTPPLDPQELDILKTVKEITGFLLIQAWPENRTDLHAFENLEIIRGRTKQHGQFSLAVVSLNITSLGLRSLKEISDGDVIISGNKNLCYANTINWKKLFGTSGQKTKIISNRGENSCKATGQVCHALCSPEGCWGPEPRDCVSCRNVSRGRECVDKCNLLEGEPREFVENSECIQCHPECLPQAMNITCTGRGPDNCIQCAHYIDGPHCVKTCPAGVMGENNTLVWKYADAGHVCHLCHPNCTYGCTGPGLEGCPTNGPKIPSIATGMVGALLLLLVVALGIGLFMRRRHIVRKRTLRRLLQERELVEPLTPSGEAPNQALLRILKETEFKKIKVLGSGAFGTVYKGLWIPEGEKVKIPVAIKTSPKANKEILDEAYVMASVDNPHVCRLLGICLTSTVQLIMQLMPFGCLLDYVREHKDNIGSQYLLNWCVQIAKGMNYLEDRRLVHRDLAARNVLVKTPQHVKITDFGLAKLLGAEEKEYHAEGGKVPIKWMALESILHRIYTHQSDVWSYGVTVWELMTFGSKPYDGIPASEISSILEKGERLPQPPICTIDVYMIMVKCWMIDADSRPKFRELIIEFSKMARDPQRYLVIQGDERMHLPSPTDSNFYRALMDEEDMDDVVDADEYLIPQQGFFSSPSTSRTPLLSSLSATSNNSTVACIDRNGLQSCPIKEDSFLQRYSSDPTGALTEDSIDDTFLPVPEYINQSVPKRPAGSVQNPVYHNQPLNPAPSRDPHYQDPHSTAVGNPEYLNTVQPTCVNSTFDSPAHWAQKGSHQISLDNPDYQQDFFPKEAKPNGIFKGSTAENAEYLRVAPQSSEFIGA
T1 sequence (P00533 with tags, fused parts or gaps DEL746-750): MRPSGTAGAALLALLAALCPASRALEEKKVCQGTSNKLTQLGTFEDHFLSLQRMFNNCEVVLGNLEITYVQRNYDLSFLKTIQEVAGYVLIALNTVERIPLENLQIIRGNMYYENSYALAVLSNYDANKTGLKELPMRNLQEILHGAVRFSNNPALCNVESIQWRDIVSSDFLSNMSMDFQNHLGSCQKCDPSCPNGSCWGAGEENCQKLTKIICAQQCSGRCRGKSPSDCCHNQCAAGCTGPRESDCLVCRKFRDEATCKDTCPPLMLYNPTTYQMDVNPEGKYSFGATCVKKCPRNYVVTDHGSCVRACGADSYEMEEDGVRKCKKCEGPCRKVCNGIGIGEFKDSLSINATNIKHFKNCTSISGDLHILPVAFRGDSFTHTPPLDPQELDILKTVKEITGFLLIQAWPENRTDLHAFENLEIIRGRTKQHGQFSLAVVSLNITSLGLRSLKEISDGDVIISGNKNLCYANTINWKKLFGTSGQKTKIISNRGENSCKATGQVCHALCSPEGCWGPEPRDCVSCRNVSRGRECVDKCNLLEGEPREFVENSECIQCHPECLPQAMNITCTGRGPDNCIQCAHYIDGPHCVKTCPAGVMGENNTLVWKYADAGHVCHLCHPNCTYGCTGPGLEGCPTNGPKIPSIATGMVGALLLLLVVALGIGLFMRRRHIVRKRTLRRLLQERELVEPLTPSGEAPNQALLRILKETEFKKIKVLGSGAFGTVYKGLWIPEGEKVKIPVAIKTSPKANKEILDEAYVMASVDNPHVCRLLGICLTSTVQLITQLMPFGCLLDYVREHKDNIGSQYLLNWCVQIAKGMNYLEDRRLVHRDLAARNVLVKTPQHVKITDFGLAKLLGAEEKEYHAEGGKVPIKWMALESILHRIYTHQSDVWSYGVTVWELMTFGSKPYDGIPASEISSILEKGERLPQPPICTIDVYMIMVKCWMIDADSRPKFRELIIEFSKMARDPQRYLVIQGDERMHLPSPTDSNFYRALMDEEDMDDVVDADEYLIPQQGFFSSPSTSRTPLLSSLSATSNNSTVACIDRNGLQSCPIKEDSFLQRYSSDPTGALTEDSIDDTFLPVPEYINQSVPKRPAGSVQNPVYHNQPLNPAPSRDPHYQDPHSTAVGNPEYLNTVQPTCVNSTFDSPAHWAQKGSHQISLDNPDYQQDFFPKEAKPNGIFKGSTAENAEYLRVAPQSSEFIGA
T5 sequence (P00533 with tags, fused parts or gaps DEL746-750/T790M/C797S, form open): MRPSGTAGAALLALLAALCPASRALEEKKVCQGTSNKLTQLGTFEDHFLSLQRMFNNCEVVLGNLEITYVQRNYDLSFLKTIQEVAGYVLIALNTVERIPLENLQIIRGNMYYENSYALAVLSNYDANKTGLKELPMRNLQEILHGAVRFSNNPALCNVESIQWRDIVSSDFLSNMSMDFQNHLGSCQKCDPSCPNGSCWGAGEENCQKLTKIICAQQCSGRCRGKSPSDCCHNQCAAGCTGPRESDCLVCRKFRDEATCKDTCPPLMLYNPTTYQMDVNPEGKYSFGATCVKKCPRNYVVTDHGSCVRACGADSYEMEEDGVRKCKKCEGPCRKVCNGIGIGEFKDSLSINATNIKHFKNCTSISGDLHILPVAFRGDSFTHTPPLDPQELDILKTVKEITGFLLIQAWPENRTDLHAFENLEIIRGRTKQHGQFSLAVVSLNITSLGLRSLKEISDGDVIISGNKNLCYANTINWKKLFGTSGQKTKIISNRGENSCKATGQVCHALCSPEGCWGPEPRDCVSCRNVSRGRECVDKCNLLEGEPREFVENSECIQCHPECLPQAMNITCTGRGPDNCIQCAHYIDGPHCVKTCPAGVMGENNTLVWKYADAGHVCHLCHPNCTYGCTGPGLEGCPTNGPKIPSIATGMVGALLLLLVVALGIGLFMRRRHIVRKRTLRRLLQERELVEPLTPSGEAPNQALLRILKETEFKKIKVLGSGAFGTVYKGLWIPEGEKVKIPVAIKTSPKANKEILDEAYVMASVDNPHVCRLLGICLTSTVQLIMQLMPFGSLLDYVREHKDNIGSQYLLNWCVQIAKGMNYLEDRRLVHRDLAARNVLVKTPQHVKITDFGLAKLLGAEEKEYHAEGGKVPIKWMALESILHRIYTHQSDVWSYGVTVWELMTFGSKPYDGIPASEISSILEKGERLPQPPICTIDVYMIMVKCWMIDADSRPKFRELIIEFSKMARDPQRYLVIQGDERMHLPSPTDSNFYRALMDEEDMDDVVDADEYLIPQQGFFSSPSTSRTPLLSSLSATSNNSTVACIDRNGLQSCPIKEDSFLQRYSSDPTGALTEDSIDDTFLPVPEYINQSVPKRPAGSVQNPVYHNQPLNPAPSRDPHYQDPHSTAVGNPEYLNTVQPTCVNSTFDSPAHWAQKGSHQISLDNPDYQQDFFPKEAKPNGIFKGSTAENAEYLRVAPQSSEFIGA

As for `CCn1cc(Nc2ncc(Br)c(Nc3ccc4nccnc4c3N(C)S(C)(=O)=O)n2)c(C)n1` [Compound I-387], the pIC50 was 5.60 to 6.30 in assay [1]; 6.30 to 7.30 in assay [2]; 5.60 to 6.30 in assay [3]; 6.30 to 7.30 in assay [4]; 6.30 to 7.30 in assay [5]; 5.60 to 6.30 in assay [6].

Take `CC(C)n1cc(Nc2ncc(Br)c(Nc3ccc4nccnc4c3N(C)S(C)(=O)=O)n2)cn1` [Compound I-388]: the pIC50 in assay [1] was 6.30 to 7.30; in assay [2], no less than 7.30; in assay [3], 6.30 to 7.30; in assay [4], no less than 7.30; in assay [5] it was no less than 7.30; in assay [6], 6.30 to 7.30.

Regarding `CCc1cc(Nc2ncc(Br)c(Nc3ccc4nccnc4c3N(C)S(C)(=O)=O)n2)c(OC)cc1F` [Compound I-389], the pIC50 was 5.60 to 6.30 in assay [1]; 6.30 to 7.30 in assay [2]; 5.60 to 6.30 in assay [3]; 5.60 to 6.30 in assay [4]; 5.60 to 6.30 in assay [5]; 5.60 to 6.30 in assay [6].

In the case of `CCc1cc(Nc2ncc(Br)c(Nc3ccc4nccnc4c3N(C)S(C)(=O)=O)n2)c(OC)cc1NCCO` [Compound I-390], the pIC50 is 5.60 to 6.30 in assay [1]; no less than 7.30 in assay [2]; 6.30 to 7.30 in assay [3]; 6.30 to 7.30 in assay [4]; 6.30 to 7.30 in assay [5]; 6.30 to 7.30 in assay [6].

In the case of `CCc1cc(Nc2ncc(Br)c(Nc3ccc4nccnc4c3N(C)S(C)(=O)=O)n2)c(OC)cc1NCCN(C)C` [Compound I-391], the pIC50 in assay [1] was 6.30 to 7.30; in assay [2], no less than 7.30; in assay [3], 6.30 to 7.30; in assay [4], 6.30 to 7.30; in assay [5], no less than 7.30; in assay [6] it was 6.30 to 7.30.

Consider `CCc1cc(Nc2ncc(Br)c(Nc3ccc4nccnc4c3N(C)S(C)(=O)=O)n2)c(OC)cc1N(C)CCN(C)C` [Compound I-392], for which the pIC50 in assay [1] is 6.30 to 7.30; in assay [2] it was no less than 7.30; in assay [3], 6.30 to 7.30; in assay [4], 6.30 to 7.30; in assay [5], no less than 7.30; in assay [6], 6.30 to 7.30.

`CCc1cc(Nc2ncc(Br)c(Nc3ccc4nccnc4c3N(C)S(C)(=O)=O)n2)c(OC)cc1N1CCC(N2CCN(C)CC2)CC1` [Compound I-396]: the pIC50 in assay [1] was 6.30 to 7.30; in assay [2] it was no less than 7.30; in assay [3], 6.30 to 7.30; in assay [4] it was 6.30 to 7.30; in assay [5] it was no less than 7.30; in assay [6], 6.30 to 7.30.

As for `CCc1cc(Nc2ncc(Br)c(Nc3ccc4nccnc4c3N(C)S(C)(=O)=O)n2)c(OC)cc1N1CCN(C2CN(C)C2)CC1` [Compound I-398], the pIC50 in assay [1], in assay [2], in assay [3], in assay [4], in assay [5] and in assay [6] was no less than 7.30 throughout.

As to `CCc1cc(Nc2ncc(Br)c(Nc3ccc4nccnc4c3N(C)S(C)(=O)=O)n2)c(OC)cc1N1CCC2(CC1)CC(N(C)C)C2` [Compound I-399], the pIC50 in assay [1] was 6.30 to 7.30; in assay [2] it was no less than 7.30; in assay [3], 6.30 to 7.30; in assay [4] it was 6.30 to 7.30; in assay [5], no less than 7.30; in assay [6], 6.30 to 7.30.

For the compound `COc1cc(N2CCC(N3CCN(C)CC3)CC2)ccc1Nc1ncc(Br)c(Nc2ccc3nccnc3c2NS(C)(=O)=O)n1` [Compound I-401], the pIC50 is 6.30 to 7.30 in assay [1]; 6.30 to 7.30 in assay [2]; 6.30 to 7.30 in assay [3]; no less than 7.30 in assay [4]; 6.30 to 7.30 in assay [5]; 6.30 to 7.30 in assay [6].

For `COc1cc(N2CCC(N3CCN(C)CC3)CC2)c(C)cc1Nc1ncc(Br)c(Nc2ccc3nccnc3c2NS(C)(=O)=O)n1` [Compound I-402], the pIC50 in assay [1] is no less than 7.30; in assay [2], no less than 7.30; in assay [3], 6.30 to 7.30; in assay [4] it was no less than 7.30; in assay [5] it was no less than 7.30; in assay [6], no less than 7.30.

Consider `CCc1cc(Nc2ncc(Br)c(Nc3ccc4nccnc4c3NS(C)(=O)=O)n2)c(OC)cc1N1CCC(N2CCN(C)CC2)CC1` [Compound I-403], for which the pIC50 in assay [1], in assay [2], in assay [3], in assay [4], in assay [5] and in assay [6] was no less than 7.30 each time.

Consider `CCc1cc(Nc2ncc(Br)c(Nc3ccc4nccnc4c3NS(C)(=O)=O)n2)c(OC)nc1N1CCC(N2CCN(C)CC2)CC1` [Compound I-404], for which the pIC50 in assay [1] is 6.30 to 7.30; in assay [2], no less than 7.30; in assay [3], no less than 7.30; in assay [4], no less than 7.30; in assay [5], no less than 7.30; in assay [6], no less than 7.30.

Turning to `CCc1cc(Nc2ncc(Br)c(Nc3ccc4nccnc4c3NS(C)(=O)=O)n2)c(OC(F)(F)F)cc1N1CCC(N2CCN(C)CC2)CC1` [Compound I-405], the pIC50 in assay [1] was 6.30 to 7.30; in assay [2] it was 6.30 to 7.30; in assay [3], 6.30 to 7.30; in assay [4], 6.30 to 7.30; in assay [5], 6.30 to 7.30; in assay [6] it was no less than 7.30.

In the case of `COc1cc(N2CCC(N3CCN(C)CC3)CC2)c(C(C)C)cc1Nc1ncc(Br)c(Nc2ccc3nccnc3c2NS(C)(=O)=O)n1` [Compound I-406], the pIC50 in assay [1], in assay [2], in assay [3], in assay [4], in assay [5] and in assay [6] was 6.30 to 7.30 each time.

`COc1cc(N2CCC(N3CCN(C)CC3)CC2)c(C2CC2)cc1Nc1ncc(Br)c(Nc2ccc3nccnc3c2NS(C)(=O)=O)n1` [Compound I-407]: the pIC50 in assay [1], in assay [2], in assay [3], in assay [4], in assay [5] and in assay [6] was no less than 7.30 each time.

As to `COc1cc(N2CCC(N3CCN(C)CC3)CC2)c(CC2CC2)cc1Nc1ncc(Br)c(Nc2ccc3nccnc3c2NS(C)(=O)=O)n1` [Compound I-408], the pIC50 is 6.30 to 7.30 in assay [1]; no less than 7.30 in assay [2]; no less than 7.30 in assay [3]; no less than 7.30 in assay [4]; no less than 7.30 in assay [5]; no less than 7.30 in assay [6].

As for `CCc1cc(Nc2ncc(Br)c(Nc3ccc4nccnc4c3NS(C)(=O)=O)n2)ccc1N1CCC(N2CCN(C)CC2)CC1` [Compound I-409], the pIC50 in assay [1], in assay [2], in assay [3], in assay [4], in assay [5] and in assay [6] was no less than 7.30 in each case.

As to `CCc1cc(Nc2ncc(Br)c(Nc3ccc4nccnc4c3NS(C)(=O)=O)n2)c(OC)cc1N1CCC(N(C)C)CC1` [Compound I-410], the pIC50 in assay [1], in assay [2], in assay [3], in assay [4], in assay [5] and in assay [6] was no less than 7.30 in each case.

Take `CCc1cc(Nc2ncc(Br)c(Nc3ccc4nccnc4c3NS(C)(=O)=O)n2)c(OC)cc1N1CCN(C)CC1` [Compound I-411]: the pIC50 in assay [1], in assay [2], in assay [3], in assay [4], in assay [5] and in assay [6] was no less than 7.30 each time.

Regarding `CCc1cc(Nc2ncc(Br)c(Nc3ccc4nccnc4c3NS(C)(=O)=O)n2)c(OC)cc1N1CCC(N(C)C)C1` (stereo not drawn) [Compound I-412], the pIC50 in assay [1], in assay [2], in assay [3], in assay [4], in assay [5] and in assay [6] was no less than 7.30 each time.

Consider `COc1cc(N2CCC(N3CCN(C)CC3)CC2)ccc1Nc1ncc(Br)c(Nc2ccc3nccnc3c2NS(=O)(=O)C(C)C)n1` [Compound I-413], for which the pIC50 in assay [1], in assay [2], in assay [3], in assay [4], in assay [5] and in assay [6] was 6.30 to 7.30 in each case.
